Source: patent US20240131046A1, “ANTI-VIRAL AGENT” (NATIONAL UNIVERSITY CORPORATION HOKKAIDO UNIVERSITY, priority 2021, published 2024)
Like-named read-outs stand apart in the source and are kept apart here.

Key:
[1] = Cytotoxicity CC50 (Table 1); format: cell-based, human; conditions: human, MRC5 cells
Description: (§1) In the following tests, culture-cell strain MRC5 cells from the lungs of a human fetus or culture-cell strain Caco-2 cells from a human colon carcinoma were infected using the viruses. For both cell types, 2% FBS/MEM was used as a culture medium. The 2% FBS/MEM was prepared by adding 2% FBS (fetal bovine serum; made by Gibco) and L-glutamine (made by Wako) to MEM (Minimum Essential Medium; made by Nissui).
(§2) Moreover, from values of EC50 and CC50, SI (CC50/EC50) was calculated.

HCoV-OC43 [2] = tested on: HCoV-OC43
HCoV-229E [3] = tested on: HCoV-229E
HCoV-OC43 [4] = test: Cell-death suppression effect in coronavirus-infected cells (resazurin); conditions: for EC50: read-out: HCoV-0C43 EC50 (50% cell death inhibition concentration)
HCoV-229E [5] = test: as above; conditions: for EC50: read-out: HCoV-229E EC50 (50% cell death inhibition concentration)
MRC5 cells = test: Cytotoxicity CC50 (Table 1); format: cell-based, human
Description: as §1, §2

YFV [6] = conditions: non-patent literature 5; read-out: antiviral activity (EC50) against YFV; cited from earlier work
HCoV-229E and HCoV-OC43 = test: Library screening for suppression of cell death of cells infected by a human coronavirus; format: cell-based
Description: HCoV-229E (ATCC: VR-740) and HCoV-OC43 (ATCC: VR-1558) obtained from the ATCC were used as coronaviruses that routinely infect humans (human coronaviruses: HCoV).
as §1
HCoV-229E and HCoV-OC43 were used as the human coronavirus.

DENV1 = test: microbe, parasite or virus in culture; format: cell-based; conditions: Dengue virus, DENV1, 120 h; BHK-21 cells, five days, MTT
DENV2 = test: microbe, parasite or virus in culture; format: cell-based; conditions: Dengue virus, DENV2, 96 h; BHK-21 cells, four days, MTT
DENV3 = test: microbe, parasite or virus in culture; format: cell-based; conditions: Dengue virus, DENV3, 120 h; BHK-21 cells, five days, MTT
DENV4 = test: microbe, parasite or virus in culture; format: cell-based; conditions: Dengue virus, DENV4, 120 h; BHK-21 cells, five days, MTT
JEV = test: microbe, parasite or virus in culture; format: cell-based; conditions: Japanese encephalitis virus, 72 h; BHK-21 cells, three days, MTT
WNV = test: microbe, parasite or virus in culture; format: cell-based; conditions: West Nile virus, 72 h; BHK-21 cells, three days, MTT
SARS-CoV-2 [7] = test: Viral-RNA replication suppression in infected Caco-2 cells (qRT-PCR); conditions: for EC50: Severe acute respiratory syndrome coronavirus 2, Caco-2, 48 h, read-out: SARS-CoV-2 EC50
ZIKV = test: microbe, parasite or virus in culture; format: cell-based; conditions: Zika virus, 72 h; BHK-21 cells, three days, MTT
Caco-2 cells = conditions: for cytotoxicity by microscopic observation: Caco-2 cells infected with SARS-CoV-2; for concentration at which mild cytotoxicity, not to an extent of cell extinction, was observed: human
SARS-CoV-2 [8] = test: Time-of-addition test in infected Caco-2 cells (viral RNA, TCID50 titration); format: cell-based; conditions: 1 μM, treatment timing Whole and Post-Entry
YFV [9] = test: microbe, parasite or virus in culture; format: cell-based; conditions: Yellow fever virus, BHK-21, 72 h, read-out: EC50 YFV

Structure (SMILES) | HCoV-0C43 SI (CC50/EC50) (HCoV-OC43 [2]) | HCoV-229E SI (CC50/EC50) (HCoV-229E [3]) | EC50 (HCoV-OC43 [4]; Betacoronavirus 1, OC43, 72 h) | EC50 (HCoV-229E [5]; Human coronavirus 229E, 72 h) | antiviral activity (suppressing cell death of infected cells) in library screening (HCoV-229E and HCoV-OC43) | EC50 (DENV1) | EC50 (DENV2) | EC50 (DENV3) | EC50 (DENV4) | EC50 (JEV) | EC50 (WNV) | EC50 (SARS-CoV-2 [7]) | antiviral activity (suppressing cell death of infected cells) in library screening (HCoV-229E and HCoV-OC43; HCoV-229E and HCoV-OC43) | cytotoxicity by microscopic observation (Caco-2 cells) | HCoV-229E SI (CC50/EC50) (HCoV-229E [5]) | CC50 [1] | concentration at which mild cytotoxicity, not to an extent of cell extinction, was observed (Caco-2 cells) | further results
CCC(CC)COC(=O)[C@H](C)N[P@](=O)(OC[C@H]1O[C@@](C#N)(c2ccc3c(N)ncnn23)[C@H](O)[C@@H]1O)Oc1ccccc1 [GS-5734, remdesivir, reference compound] | >221.1 | >694.1 | 230 nM | 72 nM | – | – | – | – | – | – | – | – | – | – | – | – | – | CC50 ([1]; read-out: CC50): > 50000 nM
N#C[C@@]1(c2ccc3c(N)ncnn23)O[C@H](CO)[C@@H](O)[C@H]1O [GS-441524, reference compound] | – | – | – | – | – | – | – | – | – | – | – | – | – | – | – | – | – | CC50 (MRC5 cells): > 50000 nM; EC50 (YFV [6]): 11000 nM; EC50 (HCoV-OC43 [4]; cultured three days, resazurin): 3700 nM; EC50 (HCoV-229E [5]; cultured three days, resazurin): 3100 nM
Nc1ncnc2c1c(/C=N\O)cn2[C@@H]1O[C@H](CO)[C@@H](O)[C@H]1O [HUP1069, 5-formyltubercidin oxime] | 13 | >9.5 | 55 nM | < 78 nM | had antiviral activity | > 16000 nM | < 125 nM | > 16000 nM | > 16000 nM | < 130 nM | < 130 nM | 200 nM | – | – | – | – | – | –
Nc1c2ccn([C@@H]3O[C@H](CO)[C@@H](O)[C@H]3O)c2nc[n+]1[O-] [HUP1077, tubercidin N-oxide] | – | – | – | 4000 nM | – | 3200 nM | – | 2300 nM | 2500 nM | 6900 nM | 10700 nM | 3500 nM | had antiviral activity | concerns regarding cytotoxicity were low | 6.1 | – | – | EC50 (ZIKV): 6300 nM; HCoV-0C43 SI (CC50/EC50) (HCoV-OC43 [4]): 5.6
Nc1ncnc2c1c([N+](=O)[O-])cn2[C@@H]1O[C@H](CO)[C@@H](O)[C@H]1O [HUP1078, 5-nitrotubercidin] | – | – | > 10000 nM | 2000 nM | – | – | > 20000 nM | – | – | – | – | 100 nM | had antiviral activity | – | 0.17 | 330 nM | ≥ 123 nM | –
Nc1ncnc2c1c(CO)cn2[C@@H]1O[C@H](CO)[C@@H](O)[C@H]1O [HUP1108, 5-hydroxymethyltubercidin] | – | – | 350 nM | – | – | – | – | – | – | – | – | 570 nM | had antiviral activity | concerns regarding cytotoxicity were low | >117 | > 50000 nM | 10000 nM | relative viral-RNA amount (SARS-CoV-2 [8]; Caco-2 cells, 24 hours, FIG. 3): reduced; viral titer (TCID50) (SARS-CoV-2 [8]; supernatant titrated on VeroE6/TMPRSS2 cells, FIG. 4): reduced; concentration range in which virus proliferation was suppressed without cytotoxicity (SARS-CoV-2 [7]; Caco-2 cells): lower than 3.33 μM; HCoV-0C43 SI (CC50/EC50) (HCoV-OC43 [4]): >141
N#Cc1cn([C@@H]2O[C@H](CO)[C@@H](O)[C@H]2O)c2ncnc(N)c12 [HUP1109, 5-cyanotubercidin] | – | 0.26 | > 10000 nM | 2300 nM | had antiviral activity | – | > 20000 nM | – | – | – | – | 200 nM | – | strong cytotoxicity | – | 590 nM | – | –
Nc1ncnc2c1ccn2[C@@H]1O[C@H](CO)[C@@H](O)[C@H]1O [HUP1136, tubercidin] | 5.9 | >8.5 | – | < 78 nM | had antiviral activity | > 16000 nM | – | < 125 nM | > 16000 nM | < 130 nM | 200 nM | 87 nM | – | – | – | – | ≥ 1110 nM | EC50 (YFV [9]): 150 nM
